# Data reported in ChEMBL document CHEMBL3044842, “Composition and antifungal activity on soil-borne pathogens of the essential oil of Salvia sclarea from Greece” (J Agric Food Chem, 2002).
# What was measured:
# Format in all cases: functional, organism-based
# [1] = test system: Stromatinia cepivora; assay: Antifungal activity against Sclerotium cepivorum after 4 days
# [2] = test system: Fusarium oxysporum f. sp. dianthi; assay: Antifungal activity against Fusarium oxysporum f. sp. dianthi after 4 days
# [3] = test system: Sclerotinia sclerotiorum; assay: Antifungal activity against Sclerotinia sclerotiorum after 4 days
smiles,measurement,setting,value
C=CC(C)(O)CCC=C(C)C (stereo unspecified) [LINALOOL],EC50,[1],563.94 uL/L
same,EC50,[2],661.76 uL/L
same,EC50,[3],146.15 uL/L
C=CC(C)(CCC=C(C)C)OC(C)=O (stereo unspecified) [LINALYL ACETATE],EC50,[1],> 1500 uL/L
same,EC50,[2],> 1500 uL/L
same,EC50,[3],549.62 uL/L
